Test results as given in paper PMC9370150, “UHPLC Enantiomer Resolution for the ɑ/β-Adrenoceptor Antagonist R/S-Carvedilol and Its Major Active Metabolites on Chiralpak IB N-5” (Molecules, 2022).
Read-outs that look alike come from different tables or passages of the source.

Legend:
β-adrenoreceptor = settings: cited from earlier work
[1] = set-up: method as in PMID 1980583; settings: therapeutic dose; cited from earlier work
α1-adrenoreceptor = settings: cited from earlier work
[2] = Enantiomer plasma concentrations in cardiovascular patients after oral 25 mg rac-CAR (UHPLC-UV on Chiralpak IB N-5); settings: for concentration at 0.5 h / concentration at 1 h / concentration at 2 h / concentration at 4 h / concentration at 9 h / concentration at 12 h: human, plasma, po, 25 mg
Method: The developed method was applied to single plasma samples obtained from different patients after an oral dose administration of 25 mg rac-CAR under non-standardized conditions. Patients’ plasma was collected at different time intervals after drug administration and CAR and its metabolites were extracted according to the method in Section 4.7 after spiking with IS.
Blood samples obtained from patients were also collected in EDTA-containing tubes. Blood was kept cool and then centrifuged at 2000 g for 15 min. Following plasma separation, it was immediately transferred into clean polypropylene tubes. The samples were always kept at 2–8 °C while handling.
After collection, plasma was obtained and the samples stored frozen until analysis.

[3] = patient 3, sampling time 2.0 hr, oral 25 mg racemic CAR
[4] = patient 4, sampling time 4.0 hr, oral 25 mg racemic CAR
[5] = patient 5, sampling time 9.0 hr, oral 25 mg racemic CAR
[6] = patient 6, sampling time 12.0 hr, oral 25 mg racemic CAR
[7] = single enantiomers, read-out: Kd, β-adrenoreceptor antagonistic property
[8] = single enantiomers, read-out: Kd, α1-antagonistic activity

Row | SMILES | concentration at 0.5 h [2] | concentration at 1 h [2] | Plasma Concentration [2, 3] | Plasma Concentration [2, 4] | Plasma Concentration [2, 5] | Plasma Concentration [2, 6] | concentration at 2 h [2] | concentration at 4 h [2] | concentration at 9 h [2] | concentration at 12 h [2] | further results
1 | COc1ccccc1OCCNCC(O)COc1cccc2[nH]c3ccccc3c12 (centres unmarked) [CAR, Carvedilol] | 41 ng/mL | 98.4 ng/mL | – | – | – | – | – | – | – | – | β-adrenoceptor-antagonism eudismic ratio (β-adrenoreceptor; parent CAR): approximately 100; Kd (β-adrenoreceptor; racemate, read-out: Kd, nonselective β-adrenoreceptor antagonist): 0.011 µM; excreted unchanged into urine [1]: 2%; fraction of dose metabolized [1]: ~98%; α1-adrenoceptor-antagonism eudismic ratio (α1-adrenoreceptor; parent CAR): approximately 1; Kd (α1-adrenoreceptor; racemate, read-out: apparent dissociation constant (Kd), α1-adrenoreceptor antagonist): 0.0009 µM; plasma S/R ratios of CAR enantiomers ([2]; analyzed patient samples after 25 mg CAR racemate): ~1; Plasma concentration S/R ([2]; patient 1, sampling time 0.5 hr, oral 25 mg racemic CAR): 0.98; sum of the two enantiomers in plasma ([2]; patients investigated, 25 mg CAR racemate): ≤ 100 ng/mL
2 | COc1cc(O)ccc1OCCNC[C@@H](O)COc1cccc2[nH]c3ccccc3c12 [R-4′OHC] | – | – | 4.51 ng/mL | 4.98 ng/mL | 3.54 ng/mL | 1.96 ng/mL | – | – | – | – | –
3 | COc1ccc(O)cc1OCCNC[C@@H](O)COc1cccc2[nH]c3ccccc3c12 [R-5′OHC] | – | – | 8.20 ng/mL | 9.47 ng/mL | 6.09 ng/mL | 3.78 ng/mL | – | – | – | – | –
4 | COc1ccccc1OCCNC[C@@H](O)COc1cccc2[nH]c3ccccc3c12 [R-CAR] | 20.7 ng/mL | 48.4 ng/mL | – | – | – | – | – | – | – | – | β-blocking activity relative to the racemate (β-adrenoreceptor; share of the racemate's activity): approximately 1%; Kd (β-adrenoreceptor; [7]): ~0.045 µM; Kd (α1-adrenoreceptor; [8]): 0.016 µM
5 | Oc1ccccc1OCCNC[C@@H](O)COc1cccc2[nH]c3ccccc3c12 [R-DMC] | – | – | 6.06 ng/mL | 4.93 ng/mL | 2.82 ng/mL | 1.52 ng/mL | – | – | – | – | Plasma Concentration ([2]; patient 2, sampling time 1.0 hr, oral 25 mg racemic CAR): 2.40 ng/mL
6 | COc1cc(O)ccc1OCCNC[C@H](O)COc1cccc2[nH]c3ccccc3c12 [S-4′OHC] | – | – | – | – | – | – | 13.7 ng/mL | 16.1 ng/mL | 8.18 ng/mL | 5.29 ng/mL | –
7 | COc1ccc(O)cc1OCCNC[C@H](O)COc1cccc2[nH]c3ccccc3c12 [S-5′OHC] | – | – | – | – | – | – | 11.5 ng/mL | 14.1 ng/mL | 8.09 ng/mL | 5.28 ng/mL | –
8 | COc1ccccc1OCCNC[C@H](O)COc1cccc2[nH]c3ccccc3c12 [S-CAR, (-)-1-(9H-carbazol-4-yloxy)-3-[2-(2-methoxyphenoxy)ethylamino] propan-2-ol] | 20.3 ng/mL | 50 ng/mL | – | – | – | – | – | – | – | – | β-adrenoreceptor potency relative to the racemic mixture (β-adrenoreceptor; fold more potent than racemate): approximately two-fold; Kd (β-adrenoreceptor; [7]): 0.0004 µM; Kd (α1-adrenoreceptor; [8]): 0.014 µM
9 | Oc1ccccc1OCCNC[C@H](O)COc1cccc2[nH]c3ccccc3c12 [S-DMC] | – | 3.27 ng/mL | – | – | – | – | 9.92 ng/mL | 8.52 ng/mL | 5.02 ng/mL | 2.73 ng/mL | –
